Measurements: paper PMC3518039 (Journal of medicinal chemistry, 2012)

Assays:
[1] = molecular target: Fusarium solani Cutinase (Fusarium vanettenii, UniProt P00590); assay type: biochemical, Fusarium solani pisi
[2] = molecular target: Mycobacterium tuberculosis Rv0183 (monoglyceride lipase) (Mycobacterium tuberculosis, UniProt O07427); assay type: biochemical
[3] = molecular target: Mycobacterium tuberculosis LipY (triacylglycerol lipase) (Mycobacterium tuberculosis, UniProt I6Y2J4); assay type: biochemical
[4] = molecular target: T1, LipY (Mycobacterium tuberculosis, UniProt I6Y2J4); assay type: binding
T1 sequence (I6Y2J4 1-437): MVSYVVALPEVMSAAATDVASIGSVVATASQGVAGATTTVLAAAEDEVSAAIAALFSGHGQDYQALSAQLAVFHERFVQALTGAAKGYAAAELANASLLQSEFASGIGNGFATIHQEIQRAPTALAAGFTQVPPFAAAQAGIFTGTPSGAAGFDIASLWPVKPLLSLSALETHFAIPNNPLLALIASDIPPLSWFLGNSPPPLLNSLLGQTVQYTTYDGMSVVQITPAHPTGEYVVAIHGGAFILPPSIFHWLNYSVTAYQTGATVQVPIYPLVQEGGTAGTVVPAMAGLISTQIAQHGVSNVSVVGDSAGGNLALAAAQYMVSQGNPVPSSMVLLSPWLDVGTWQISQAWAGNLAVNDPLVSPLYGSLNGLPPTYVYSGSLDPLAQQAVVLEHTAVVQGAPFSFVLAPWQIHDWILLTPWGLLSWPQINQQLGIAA

Chain of Mycobacterium tuberculosis Rv0183 (monoglyceride lipase) (O07427 whole entry, looked up): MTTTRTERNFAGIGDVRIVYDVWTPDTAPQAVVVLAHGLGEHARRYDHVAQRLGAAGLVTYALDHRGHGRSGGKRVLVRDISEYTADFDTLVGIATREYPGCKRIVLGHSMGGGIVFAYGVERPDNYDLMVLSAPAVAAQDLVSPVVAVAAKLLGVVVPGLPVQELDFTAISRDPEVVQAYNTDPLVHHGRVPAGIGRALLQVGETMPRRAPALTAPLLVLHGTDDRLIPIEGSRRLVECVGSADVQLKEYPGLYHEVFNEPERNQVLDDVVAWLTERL
Chain of Fusarium solani Cutinase (P00590 17-230): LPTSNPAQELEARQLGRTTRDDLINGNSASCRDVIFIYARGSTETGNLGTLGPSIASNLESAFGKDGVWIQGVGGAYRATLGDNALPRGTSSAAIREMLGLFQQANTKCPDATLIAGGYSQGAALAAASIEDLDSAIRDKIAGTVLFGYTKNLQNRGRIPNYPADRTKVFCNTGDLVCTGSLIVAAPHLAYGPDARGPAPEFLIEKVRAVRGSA

| SMILES | DI (Diastereoselectivity Index between trans-(α) and cis-(β) isomers), Cutinase [1] [%] | DI (Diastereoselectivity Index between trans-(α) and cis-(β) isomers), Rv0183 [2] [%] | DI (Diastereoselectivity Index between trans-(α) and cis-(β) isomers), LipY [3] [%] | other results |
| --- | --- | --- | --- | --- |
| CCCCCCCCCCC1CCP(=O)(OC)OC(C)=C1C(=O)OC (racemic) [7(α), (±) Methyl 5-decyl-2-methoxy-7-methyl-2,3,4,5-tetrahydro-1,2-oxaphosphepine-6-carboxylate 2-oxide] | 76.2 | 51.9 | 80.3 |  |
| CCCCCC1CCP(=O)(OC)OC(C)=C1C(=O)OC (racemic) [6(β), (±) Methyl 2-methoxy-7-methyl-5-pentyl-2,3,4,5-tetrahydro-1,2-oxaphosphepine-6-carboxylate 2-oxide] | 89.7 | 16.7 |  | xI50 (inhibitor molar excess leading to 50% lipase inhibition), LipY [3]: > 100 |
| CO[P@]1(=O)OC[C@H]2COC(=O)C2=C(C)O1 [Compound 1, Cyclophostin] |  |  |  | half-inactivation time (t1/2), Cutinase [1]: 0.18 min; residual lipase activity (plateau), Cutinase [1]: around 6.0%; xI50 (inhibitor molar excess leading to 50% lipase inhibition), LipY [3]: > 100 |
| CCCCCCCCCCCCCCCCCCC1CCP(=O)(OC)OC(C)=C1C(=O)OC (racemic) [10(β), (±) Methyl 2-methoxy-7-methyl-5-octadecyl-2,3,4,5-tetrahydro-1,2-oxaphosphepine-6-carboxylate 2-oxide] | 72.1 | > 93.0 | 81.3 |  |
| CCCCCCCCCCCCCCCCOP1(=O)CCCC(C(=O)OC)=C(C)O1 (stereo not shown) [Compound 11, Methyl 7-methyl-2-(hexadecyloxy)-2,3,4,5-tetrahydro-1,2-oxaphosphepine-6-carboxylate 2-oxide] |  |  |  | half-inactivation time (t1/2), LipY [3]: 0.16 min; Mass modifications (inhibited minus native lipase), LipY [4]: +443.8 Da |
| CCCCCCCCCCCCCCCCC1CCP(=O)(OC)OC(C)=C1C(=O)OC (racemic) [9(α), (±) Methyl 5-hexadecyl-2-methoxy-7-methyl-2,3,4,5-tetrahydro-1,2-oxaphosphepine - 6-carboxylate 2-oxide] | 27.2 | > 97.0 | 70.5 |  |
| CCCCCC1CCP(=O)(OC)OC(C)=C1C(=O)OC (racemic) [6(α), (±) Methyl 2-methoxy-7-methyl-5-pentyl-2,3,4,5-tetrahydro-1,2-oxaphosphepine-6-carboxylate 2-oxide] | 89.7 | 16.7 |  | xI50 (inhibitor molar excess leading to 50% lipase inhibition), LipY [3]: > 100 |
| CCCCCCCCCCCCCCCCC1CCP(=O)(OC)OC(C)=C1C(=O)OC (racemic) [9(β), (±) Methyl 5-hexadecyl-2-methoxy-7-methyl-2,3,4,5-tetrahydro-1,2-oxaphosphepine - 6-carboxylate 2-oxide] | 27.2 | > 97.0 | 70.5 |  |
| CCCCCCCCCCCCC1CCP(=O)(OC)OC(C)=C1C(=O)OC (racemic) [8(α), (±) Methyl 5-dodecyl-2-methoxy-7-methyl-2,3,4,5-tetrahydro-1,2-oxaphosphepine-6-carboxylate 2-oxide] | 29.0 | 36.3 | 28.0 |  |
| CCCCCCCCCCCCC1CCP(=O)(OC)OC(C)=C1C(=O)OC (racemic) [8(β), (±) Methyl 5-dodecyl-2-methoxy-7-methyl-2,3,4,5-tetrahydro-1,2-oxaphosphepine-6-carboxylate 2-oxide] | 29.0 | 36.3 | 28.0 |  |
| CCCCCCCCCCCCCCCCCCC1CCP(=O)(OC)OC(C)=C1C(=O)OC (racemic) [10(α), (±) Methyl 2-methoxy-7-methyl-5-octadecyl-2,3,4,5-tetrahydro-1,2-oxaphosphepine-6-carboxylate 2-oxide] | 72.1 | > 93.0 | 81.3 |  |
| CCCCCCCCCCC1CCP(=O)(OC)OC(C)=C1C(=O)OC (racemic) [Compound 7(β), (±) Methyl 5-decyl-2-methoxy-7-methyl-2,3,4,5-tetrahydro-1,2-oxaphosphepine-6-carboxylate 2-oxide] | 76.2 | 51.9 | 80.3 | half-inactivation time (t1/2), Rv0183 [2]: 1.44 min; residual lipase activity (plateau), Rv0183 [2]: around 6.0% |
